From US9434711B2 (Janssen Pharmaceutica, NV, priority 2007, dated 2016)
pIC50: −log10 of the molar value.

Target: canine TRPM8 (Canis lupus familiaris, UniProt Q1A7N1)
Experiment: In Vitro Canine TRPM8 Functional Assay (Ca2+ fluorescence, icilin activation)
Assay type: cell-based
Settings: for pIC50: HEK293 cells stably expressing canine TRPM8, icilin activation, eight-point dose-response, read-out: IC50; for inhibition at 0.5 µM: compound at 0.5 μM, read-out: % Inh @ 0.5
Procedure: The functional activity of compounds of the formula (I) was determined by measuring changes in intracellular calcium concentration using a Ca^2+-sensitive fluorescent dye. The changes in fluorescent signal were monitored by a fluorescence plate reader, either a FLIPR™ (Molecular Devices) or FDSS (Hamamatsu).
At 24 hrs prior to assay, HEK293 cells stably expressing canine TRPM8 were seeded in culture medium in black wall, clear-base poly-D-lysine coated 384-well plates (BD Biosciences, NJ, USA) and grown overnight in 5% CO2 at 37° C. On assay day, growth media was removed and cells were loaded with Calcium 3 Dye (Molecular Devices) for 35 min at 37° C., under 5% CO2 and then for 25 min at room temperature and atmosphere. Subsequently, cells were tested for agonist-induced increases in intracellular Ca^2+ levels using FLIPR™ or FDSS. Cells were challenged with a compound of the Formula (I) (at varying concentrations) and intracellular Ca^2+ was measured for 5 min prior to the addition of icilin to all wells to achieve a final concentration that produces approximately an 80% maximal response. EC50 or IC50 values for compounds of the present invention were determined from eight-point dose-response studies. Curves were generated using the average of quadruplicate wells for each data point.

[1] = canine TRPM8, icilin activation

canine TRPM8, sequence (Q1A7N1 1-1104): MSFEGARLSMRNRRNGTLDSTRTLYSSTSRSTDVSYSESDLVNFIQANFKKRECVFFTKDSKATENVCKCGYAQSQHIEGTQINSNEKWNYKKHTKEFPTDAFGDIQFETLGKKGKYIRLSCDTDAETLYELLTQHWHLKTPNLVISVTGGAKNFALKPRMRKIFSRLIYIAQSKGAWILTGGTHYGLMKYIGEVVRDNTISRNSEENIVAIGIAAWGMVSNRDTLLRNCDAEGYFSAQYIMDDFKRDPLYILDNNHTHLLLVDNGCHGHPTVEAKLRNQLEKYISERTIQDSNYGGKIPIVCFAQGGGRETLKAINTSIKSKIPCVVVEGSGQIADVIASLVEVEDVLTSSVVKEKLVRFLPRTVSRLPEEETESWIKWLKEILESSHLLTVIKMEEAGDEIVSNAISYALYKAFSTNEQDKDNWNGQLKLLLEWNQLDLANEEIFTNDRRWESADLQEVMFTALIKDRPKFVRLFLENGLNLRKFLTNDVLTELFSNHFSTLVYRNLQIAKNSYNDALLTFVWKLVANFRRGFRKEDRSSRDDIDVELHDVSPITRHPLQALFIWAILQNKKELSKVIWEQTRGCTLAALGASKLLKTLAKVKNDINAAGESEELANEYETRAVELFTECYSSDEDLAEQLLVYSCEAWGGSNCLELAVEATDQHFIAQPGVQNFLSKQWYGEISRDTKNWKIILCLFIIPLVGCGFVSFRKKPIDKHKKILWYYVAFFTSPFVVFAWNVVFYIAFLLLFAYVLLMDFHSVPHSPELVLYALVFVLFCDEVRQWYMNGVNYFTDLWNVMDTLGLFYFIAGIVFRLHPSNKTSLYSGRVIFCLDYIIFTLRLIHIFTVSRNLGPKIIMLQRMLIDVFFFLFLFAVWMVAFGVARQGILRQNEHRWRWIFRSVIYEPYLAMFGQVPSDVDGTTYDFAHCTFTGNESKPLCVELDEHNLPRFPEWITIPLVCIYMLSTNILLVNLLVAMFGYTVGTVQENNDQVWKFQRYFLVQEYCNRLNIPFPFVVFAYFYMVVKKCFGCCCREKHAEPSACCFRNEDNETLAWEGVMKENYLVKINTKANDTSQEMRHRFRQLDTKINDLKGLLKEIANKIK

Row | Structure (SMILES) | pIC50 | inhibition at 0.5 µM [1] [%] | inhibition at 0.2 µM (compound at 0.2 μM, canine TRPM8, icilin activation, read-out: % Inh @ 0.2) [%]
1 | Cc1c(N(Cc2ccc(F)c(F)c2)S(=O)(=O)c2cccc3cccnc23)sc2ccccc12 [Compound 20, N-(3,4-Difluoro-benzyl)-N-(3-methyl-benzo[b]thiophen-2-yl)-quinoline-8-sulfonamide] | 8.22 | 98 | 
2 | Cc1c(N(Cc2ccc(OC(F)(F)F)cc2)S(=O)(=O)c2cccc3cccnc23)sc2ccccc12 [Compound 21, N-(3-Methyl-benzo[b]thiophen-2-yl)-N-(4-trifluoromethoxy-benzyl)-quinoline-8-sulfonamide] | 7.82 | 98 | 
3 | Cc1c(N(Cc2cccc3cccnc23)S(=O)(=O)c2cccc3cccnc23)sc2ccccc12 [Compound 22, N-(3-Methyl-benzo[b]thiophen-2-yl)-N-(quinolin-8-ylmethyl)-quinoline-8-sulfonamide] | 7.49 | 98 | 
4 | O=S(=O)(c1ccccc1)N(Cc1cccc(F)c1)c1sc2ccccc2c1Cl [Compound 23, N-(3-Chloro-benzo[b]thiophen-2-yl)-N-(3-fluoro-benzyl)-benzenesulfonamide] | 7.59 | 99 | 
5 | O=S(=O)(c1ccccc1)N(Cc1ccc(F)c(F)c1)c1sc2ccccc2c1Cl [Compound 24, N-(3-Chloro-benzo[b]thiophen-2-yl)-N-(3,4-difluoro-benzyl)-benzenesulfonamide] | 8.06 | 100 | 
6 | COc1cccc(S(=O)(=O)N(Cc2ccc(F)c(F)c2)c2sc3ccccc3c2C)c1 [Compound 25, N-(3,4-Difluoro-benzyl)-N-(3-methyl-benzo[b]thiophen-2-yl)-3-methoxy-benzenesulfonamide] | 7.68 | 99 | 
7 | COc1ccc(S(=O)(=O)N(Cc2ccc(F)c(F)c2)c2sc3ccccc3c2C)cc1 [Compound 26, N-(3,4-Difluoro-benzyl)-N-(3-methyl-benzo[b]thiophen-2-yl)-4-methoxy-benzenesulfonamide] | 7.70 | 98 | 
8 | Cc1c(N(Cc2ccc(F)c(F)c2)S(=O)(=O)c2cccc3cnccc23)sc2ccccc12 [Compound 27, N-(3,4-Difluoro-benzyl)-N-(3-methyl-benzo[b]thiophen-2-yl)-isoquinoline-5-sulfonamide] | 7.70 | 99 | 
9 | Cc1c(N(Cc2ccc(OC(F)(F)F)cc2)S(=O)(=O)c2cccc3cnccc23)sc2ccccc12 [Compound 28, N-(3-Methyl-benzo[b]thiophen-2-yl)-N-(4-trifluoromethoxy-benzyl)-isoquinoline-5-sulfonamide] | 7.49 | 100 | 
10 | Cc1c(N(Cc2cccc3cccnc23)S(=O)(=O)c2cccc3cnccc23)sc2ccccc12 [Compound 29, N-(3-Methyl-benzo[b]thiophen-2-yl)-N-(quinolin-8-ylmethyl)-isoquinoline-5-sulfonamide] | 7.48 | 99 | 
11 | Cc1c(N(Cc2ccc(F)c(F)c2)S(=O)(=O)c2ccc3ncccc3c2)sc2ccccc12 [Compound 30, N-(3,4-Difluoro-benzyl)-N-(3-methyl-benzo[b]thiophen-2-yl)-quinoline-6-sulfonamide] | 7.92 | 100 | 
12 | Cc1c(N(Cc2ccc(OC(F)(F)F)cc2)S(=O)(=O)c2ccc3ncccc3c2)sc2ccccc12 [Compound 31, N-(3-Methyl-benzo[b]thiophen-2-yl)-N-(4-trifluoromethoxy-benzyl)-quinoline-6-sulfonamide] | 7.66 | 100 | 
13 | Cc1c(N(Cc2cccc3cccnc23)S(=O)(=O)c2ccc3ncccc3c2)sc2ccccc12 [Compound 32, N-(3-Methyl-benzo[b]thiophen-2-yl)-N-(quinolin-8-ylmethyl)-quinoline-6-sulfonamide] | 7.43 | 100 | 
14 | O=S(=O)(c1cccnc1)N(Cc1ccc(F)c(F)c1)c1cc2ccccc2s1 [Compound 33, N-(Benzo[b]thiophen-2-yl)-N-(3,4-difluoro-benzyl)-pyridine-3-sulfonamide] | 7.24 | 100 | 

Further lines, results first:

Row | pIC50 | inhibition at 0.5 µM [1] [%] | inhibition at 0.2 µM (compound at 0.2 μM, canine TRPM8, icilin activation, read-out: % Inh @ 0.2) [%] | Structure (SMILES)
15 | 6.73 | 98 |  | CS(=O)(=O)N(Cc1ccc(F)c(F)c1)c1cc2ccccc2s1 [Compound 34, N-Benzo[b]thiophen-2-yl-N-(3,4-difluoro-benzyl)-methanesulfonamide]
16 | 7.22 | 100 |  | CCS(=O)(=O)N(Cc1ccc(F)c(F)c1)c1cc2ccccc2s1 [Compound 35, N-(Benzo[b]thiophen-2-yl)-N-(3,4-difluoro-benzyl)-ethanesulfonamide]
17 | 7.11 | 98 |  | CCCS(=O)(=O)N(Cc1ccc(F)c(F)c1)c1cc2ccccc2s1 [Compound 36, N-(Benzo[b]thiophen-2-yl)-N-(3,4-difluoro-benzyl)-propane-1-sulfonamide]
18 | 7.01 | 96 |  | CCCCS(=O)(=O)N(Cc1ccc(F)c(F)c1)c1cc2ccccc2s1 [Compound 37, N-(Benzo[b]thiophen-2-yl)-N-(3,4-difluoro-benzyl)-butane-1-sulfonamide]
19 | 8.52 | 97 |  | Cc1c(N(Cc2ccc(C(F)(F)F)c(F)c2)S(=O)(=O)c2cccs2)sc2ccccc12 [Compound 38, N-(3-Fluoro-4-trifluoromethyl-benzyl)-N-(3-methyl-benzo[b]thiophen-2-yl)-thiophene-2-sulfonamide]
20 | 8.41 | 101 |  | Cc1c(N(Cc2ccc(F)c(C(F)(F)F)c2)S(=O)(=O)c2cccnc2)sc2ccccc12 [Compound 39, N-(4-Fluoro-3-trifluoromethyl-benzyl)-N-(3-methyl-benzo[b]thiophen-2-yl)-pyridine-3-sulfonamide]
21 | 7.86 | 97 |  | CCS(=O)(=O)N(Cc1ccc(F)c(C(F)(F)F)c1)c1sc2ccccc2c1C [Compound 40, N-(4-Fluoro-3-trifluoromethyl-benzyl)-N-(3-methyl-benzo[b]thiophen-2-yl)-ethanesulfonamide]
22 | 8.27 | 99 |  | CCS(=O)(=O)N(Cc1ccc(F)c(F)c1)c1sc2ccccc2c1C [Compound 41, N-(3,4-Difluoro-benzyl)-N-(3-methyl-benzo[b]thiophen-2-yl)-ethanesulfonamide]
23 | 7.97 | 100 |  | CCS(=O)(=O)N(Cc1ccc(OC(F)(F)F)cc1)c1sc2ccccc2c1C [Compound 42, N-(3-Methyl-benzo[b]thiophen-2-yl)-N-(4-trifluoromethoxy-benzyl)-ethanesulfonamide]
24 | 7.60 | 94 |  | CCS(=O)(=O)N(Cc1ccc(F)c(C(F)(F)F)c1)c1cc2ccccc2s1 [Compound 43, N-(Benzo[b]thiophen-2-yl)-N-(4-fluoro-3-trifluoromethyl-benzyl)-ethanesulfonamide]
25 | 8.15 | 98 |  | Cc1c(N(Cc2ccc(F)c(F)c2)S(=O)(=O)N(C)C)sc2ccccc12 [Compound 44, N-(3,4-Difluoro-benzyl)-N-(3-methyl-benzo[b]thiophen-2-yl)-N′,N′-dimethylsulfamide]
26 | 7.28 |  | 97 | CS(=O)(=O)N(Cc1ccc(F)c(C(F)(F)F)c1)c1cc2ccccc2s1 [Compound 45, N-(Benzo[b]thiophen-2-yl)-N-(4-fluoro-3-trifluoromethyl-benzyl)-methanesulfonamide]
27 | 7.08 | 99 |  | O=S(=O)(c1ccccc1)N(Cc1ccc(Cl)cc1)c1cc2ccccc2s1 [Compound 46, N-(Benzo[b]thiophen-2-yl)-N-(4-chloro-benzyl)-benzenesulfonamide]
28 | 6.95 | 97 |  | COc1ccccc1CN(c1cc2ccccc2s1)S(=O)(=O)c1ccccc1 [Compound 47, N-(Benzo[b]thiophen-2-yl)-N-(2-methoxy-benzyl)-benzenesulfonamide]
29 | 7.10 | 98 |  | COc1cccc(CN(c2cc3ccccc3s2)S(=O)(=O)c2ccccc2)c1 [Compound 48, N-(Benzo[b]thiophen-2-yl)-N-(3-methoxy-benzyl)-benzenesulfonamide]
30 | 6.77 | 90 |  | COc1ccc(CN(c2cc3ccccc3s2)S(=O)(=O)c2ccccc2)cc1 [Compound 49, N-(Benzo[b]thiophen-2-yl)-N-(4-methoxy-benzyl)-benzenesulfonamide]
31 | 7.18 | 99 |  | O=S(=O)(c1ccccc1)N(Cc1ccccc1F)c1cc2ccccc2s1 [Compound 50, N-(Benzo[b]thiophen-2-yl)-N-(2-fluoro-benzyl)-benzenesulfonamide]
32 | 7.11 | 98 |  | O=[N+]([O-])c1cccc(CN(c2cc3ccccc3s2)S(=O)(=O)c2ccccc2)c1 [Compound 51, N-(Benzo[b]thiophen-2-yl)-N-(3-nitro-benzyl)-benzenesulfonamide]
33 | 6.94 | 99 |  | O=S(=O)(c1ccccc1)N(Cc1ccccn1)c1cc2ccccc2s1 [Compound 52, N-(Benzo[b]thiophen-2-yl)-N-(pyridin-2-ylmethyl)-benzenesulfonamide]
34 | 6.79 | 97 |  | O=S(=O)(c1ccccc1)N(Cc1cccnc1)c1cc2ccccc2s1 [Compound 53, N-(Benzo[b]thiophen-2-yl)-N-(pyridin-3-ylmethyl)-benzenesulfonamide]
